Source: publication PMC7504360 (International Journal of Molecular Sciences, 2020)
Square brackets hold non-standard residues; d marks the D form. Peptide text beside a SMILES is read from it.

Legend:
[1] = tested on: chymotrypsin; assay: Protease stability assay (antimicrobial activity after protease digestion); format: in vitro ADME; conditions: peptide–enzyme 10,000:1, PBS, 6 h at 37 °C preincubation, then E. coli and A. baumannii, 16 h at 37 °C, 600 nm, repeated three times
Description: (§1) For stability analysis, all Pro-peptides at their MICs were incubated with trypsin and chymotrypsin at the ratio of 10,000:1 (peptide–enzyme) in PBS for 6 h at 37 °C. After incubation, 100 μL of peptide-protease mixture was added to the 100 μL bacterial suspension (E. coli and A. baumannii, 2 × 10^5 CFU/mL) and further incubated for 16 h at 37 °C. Melittin was used as standard peptide, and bacterial suspension without peptide and protease served as control. The experiment was repeated three times, and the extent of bacterial growth was measured at 600 nm using a microplate reader.

[2] = tested on: trypsin; assay: as above; format: in vitro ADME; conditions: peptide–enzyme 10,000:1, PBS, 6 h at 37 °C preincubation, then E. coli and A. baumannii, 16 h at 37 °C, 600 nm, repeated three times
Description: as §1

[3] = tested on: LPS-stimulated RAW264.7 cells; assay: IL-6 release, ELISA; format: cell-based, mouse; conditions: 25 μM, 1 h pretreatment, LPS 20 ng/mL for 16 h
Description: (§2) The presence of nitrite in culture media strongly validates the indication of NO production which was assessed by Griess assay. Briefly, RAW264.7 cell (1 × 10^5) were seeded in s 96-well plate in triplicate. Peptides (1, 5, 25, and 50 μM) were pretreated 1 h and then stimulated with 20 ng/mL of LPS purified from E. coli O111:B4 (Sigma-Aldrich, St. Louis, MO, USA) for 16 h. After incubation, equal volumes of culture media and Griess reagent were added and color change was read at 540 nm. The concentration of nitrite content was assessed using a standard curve of sodium nitrite. In addition, release of inflammatory cytokines including TNF-α and IL-6 in the culture media was quantified using an enzyme-linked immunosorbent assays kit (ELISA; R&D Systems, Minneapolis, MN, USA) and the assay was performed according to the kit protocol. The assay was conducted in triplicate, and the concentrations of TNF-α and IL-6 were evaluated by measuring the absorbance at 450 nm using a microplate reader.

[4] = LPS neutralization, limulus amebocyte lysate (LAL) assay; format: biochemical, Escherichia coli O111:B4; conditions: 50 μM peptide, 20 ng/mL LPS, 30 min at 37 °C, LAL chromogenic kit, 405 nm; triplicate
Description: The LPS-neutralizing activity of all peptides was determined using the Pierce LAL chromogenic endotoxin quantitation kit (ThermoFisher Scientific, MA, USA). All peptides including standard (Polymixin B) at varying concentrations (3.12, 6.25, 12.5, 25, and 50 μM in endotoxin-free water) were allowed to bind with 20 ng/mL of LPS in a 96-well plate for 30 min at 37 °C. To this, an equal volume (10 μL) of LAL reagent was added and incubated for 10 min at 37 °C and then 20μL of LAL chromogenic substrate was added. After 15 min incubation at 37 °C, the reaction was stopped by 25% acetic acid and the reduction in yellow color formation due to the substrate was measured at 405 nm on an absorbance microplate reader. The experiment was conducted in triplicate, and the changes in absorbance due to peptide-LPS interaction are indicated as percent LPS neutralization.

[5] = tested on: LPS-stimulated RAW264.7 cells; assay: Nitrite (NO) production, Griess assay; format: cell-based, mouse; conditions: 25 μM, 1 h pretreatment, LPS 20 ng/mL for 16 h
Description: as §2

[6] = tested on: all bacterial strains; assay: Mean MIC over all bacterial strains (GM); format: cell-based; conditions: mean MIC of all bacterial strains of Table 2
Description: Briefly, the microplates were inoculated with two-fold serial dilutions of each peptides in Mueller–Hinton (MH) media and then seeded with log-phase culture of aforementioned bacterial suspensions (2 × 10^5 CFU/mL). The microplates were incubated for 16 h at 37 °C, and absorbance was read at 600 nm using microplate reader SpectraMAX (Molecular Devices, San Jose, CA, USA).

[7] = tested on: TLR4; assay: Immunoblot of TLR4 expression; format: cell-based, mouse; conditions: 20 μM peptide, LPS 50 ng/mL, RAW264.7 cells
Description: (§3) The protein content of all experimental groups of RAW264.7 cells in triplicate were extracted using radio immunoprecipitation buffer (RIPA) containing protease phosphatase inhibitor. The supernatant was collected by centrifugation (12,000× g) at 4 °C for 20 min and stored at −80 °C until further use. Similarly, cytoplasmic and nuclear fractionation was extracted using an NE-PER Nuclear and Cytoplasmic Extraction Reagents kit (ThermoFisher Scientific, MA, USA), according to the manufacturer’s protocol. Protein contents were quantified using a bicinchoninic acid (BCA) protein assay kit (Thermo Fisher Scientific Inc., MA, USA) and 30 μg (v/v) was electrophoresed by SDS-PAGE using a 10% (w/v) polyacrylamide resolving gel, electro-transferred to a PVDF membrane, and then blocked using 5% (w/v) non-fat milk. The membranes were incubated with primary antibodies (1:1000 dilution) at 4 °C overnight, followed by incubation with their respective secondary antibody for 1 h at room temperature. The antigen-antibody complexes were examined using the WestGlow^TM Chemiluminescent Substrate (Biomax Co., Ltd, Seoul, South Korea) under iBright™ CL1000 Imaging System (Thermo Fisher Scientific Inc., MA, USA). The densitometric analysis of protein signals were quantified using the Image J software (Version 1.52, National Institutes of Health, MD, USA).

[8] = tested on: MAPK and NF-κB; assay: Immunoblot of MAPK (JNK, ERK) phosphorylation and NF-κB nuclear translocation; format: cell-based, mouse; conditions: 20 μM peptide, LPS 50 ng/mL, RAW264.7 cells
Description: as §3

## CC[C@@H](C)[C@@H](NC(=O)[C@@H](C)NC(=O)[C@@H](CC(C)C)NC(=O)[C@@H](Cc1c[nH]c2ccccc12)NC(=O)[C@@H](CC(C)C)NC(=O)[C@@H](CCCNC(=N)N)NC(=O)[C@H](N)CCCNC(=N)N)C(=O)N[C@H](Cc1c[nH]c2ccccc12)C(=O)N[C@H](CCCNC(=N)N)C(=O)N[C@H](CCCNC(=N)N)C(N)=O [Pro10-1D] (H-[dR][dR][dL][dW][dL][dA][dI][dW][dR][dR]-NH2; N-terminus assumed)
[1]
  protease resistance (retention of bactericidal activity): substantial protease resistance
[1]; listed as enantiomeric Pro10-1
  protease resistance (retention of bactericidal activity): retained its bactericidal activity
[2]
  protease resistance (retention of bactericidal activity): substantial protease resistance
[2]; listed as enantiomeric Pro10-1
  protease resistance (retention of bactericidal activity): retained its bactericidal activity
[3]
  inhibition of LPS-induced IL-6 level: effective inhibition
[4]
  inhibition of the activation of LPS (LPS neutralization): 58.45%
[5]
  inhibition of LPS-induced NO (nitrite) level: effective inhibition
[6]
  GM (geometric mean of MIC values of all bacterial strains): 4.86 µM
[7]
  LPS-induced TLR4 expression: effectively suppressed
[8]
  MAPK and NF-κB proteins: downregulated
